This note sets out measurements from US20230121086A1, “RORgT INHIBITOR, PREPARATION METHOD THEREOF AND USE THEREOF” (SUNSHINE LAKE PHARMA CO., LTD., priority 2020, published 2023).

This assay has as its target T1, RORγt (Homo sapiens, UniProt P51449).
T1 construct: […]
T1 sequence (P51449 269-508 limits assumed): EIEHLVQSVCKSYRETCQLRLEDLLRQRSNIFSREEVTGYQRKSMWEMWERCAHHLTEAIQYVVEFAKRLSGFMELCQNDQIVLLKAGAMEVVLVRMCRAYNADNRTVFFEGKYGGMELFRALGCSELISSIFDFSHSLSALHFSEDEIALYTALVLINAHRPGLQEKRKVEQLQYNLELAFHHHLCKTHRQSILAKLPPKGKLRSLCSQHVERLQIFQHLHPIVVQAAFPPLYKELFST
Nature of the assay: Fluorescence resonance energy transfer (FRET) test, inhibitory activity of RORγt. Format: biochemical. As to conditions: FRET, B-RORγt LBD / Biotin-SRC1; read-out: IC50.

The term IC50 denotes the concentration at which inhibition is half-maximal. `CCOC[C@@H]1C[C@H](Oc2ccc(C(F)(F)F)cc2)CN1c1ccc(C(=O)N[C@H](CC#N)c2ccc(S(=O)(=O)CC)cc2)cc1` [Example 77, N—((R)-2-cyano-1-(4-(ethylsulfonyl)phenyl)ethyl)-4-((2S,4S)-2-(ethoxymethyl)-4-(4-(trifluoromethyl)phenoxy)-1-pyrrolidine)benzamide]: the IC50 turned out to be 7 nM.

For `CCS(=O)(=O)c1ccc([C@H](CC#N)NC(=O)c2cnc(N3CC(Oc4ccc(C(F)(F)F)cc4)C[C@H]3COC(F)(F)F)nc2)cc1` (stereo in doubt) [Example 72, N-((S)-2-cyano-1-(4-(ethylsulfonyl)phenyl)ethyl)-2-((2S,4S)-2-((trifluoromethoxy)methyl)-4-(4-(trifluoromethyl)phenoxy)pyrrolidin-1-yl)pyrimidine-5-carboxamide], the concentration for half-maximal inhibition (IC50) stood at 34 nM.

Turning to `CCS(=O)(=O)c1ccc([C@H](CC(=O)O)NC(=O)c2cnc(N3CCCC3c3cccc(F)c3)nc2)cc1` (stereo partly drawn) [Example 178, (3S)-3-(4-(Ethylsulfonyl)phenyl)-3-(2-(2-(3-fluorophenyl)pyrrolidin-1-yl)pyrimidine-5-carboxamido)propionic Acid], the IC50 amounted to 46.2 nM.

With `CCS(=O)(=O)c1ccc([C@H](CC#N)NC(=O)c2ccc(N3C[C@@H](Oc4ccc(-n5ccnc5)cc4)C[C@H]3COC(F)F)cc2)cc1` [Example 5, 4-((2S,4S)-4-(4-(1H-imidazol-1-yl)phenoxy)-2-((difluoromethoxy)methyl)pyrrolidin-1-yl)-N-((S)-2-cyano-1-(4-(ethylsulfonyl)phenyl)ethyl)benzamide], the IC50 is 36.1 nM.

Consider `CCS(=O)(=O)c1ccc([C@H](CC#N)NC(=O)c2ccc(N3C[C@@H](Oc4ccc(-n5cccn5)cn4)C[C@H]3COC(F)F)cc2)cc1` [Example 158], for which the IC50 is 7.4 nM.

Consider `CCS(=O)(=O)c1ccc([C@H](CC(=O)NCC(=O)OC)NC(=O)c2ccc(N3C[C@@H](Oc4ccc(C(F)(F)F)cc4)C[C@H]3COC(F)F)cc2)cc1` [Example 99, methyl 2-((S)-3-(4-((2S,4S)-2-((difluoromethoxy)methyl)-4-(4-(trifluoromethyl)phenoxy)pyrrolidin-1-yl)benzoylamino)-3-(4-(ethylsulfonyl)phenyl)propionamido)acetate], for which the IC50 was found to be 25 nM.

Consider `CCS(=O)(=O)c1ccc([C@H](CC#N)NC(=O)c2ccc(N3C[C@@H](Oc4ccc(-n5ccc(F)n5)cc4)C[C@H]3COC(F)F)cc2)cc1` [Example 162, N—((S)-2-cyano-1-(4-(ethylsulfonyl)phenyl)ethyl)-4-((2S,4S)-2-((difluoromethoxy)methyl)-4-(4-(3-fluoro-1H-pyrazol-1-yl)phenoxy)pyrrolidin-1-yl)benzamide], for which the IC50 worked out at 9.9 nM.

Turning to `CCS(=O)(=O)c1ccc([C@H](COC(N)=O)NC(=O)c2ccc(N3C[C@@H](Oc4ccc(-n5cccn5)cn4)C[C@H]3COC(F)F)nc2)cc1` [Example 168, (R)-2-(6-((2S,4S)-4-((5-(1H-pyrazol-1-yl)pyridine-2-yl)oxy)-2-((difluoromethoxy)methyl)pyrrolidin-1-yl)nicotinylamino)-2-(4-(ethylsulfonyl)phenyl)ethyl carbamate], the IC50 amounted to 8 nM.

For `CCS(=O)(=O)c1ccc([C@H](CC#N)NC(=O)c2ccc(N3C[C@@H](Oc4ccc(-n5cc(C)cn5)cc4)C[C@H]3COC(F)F)cc2)cc1` [Example 159, N—((S)-2-cyano-1-(4-(ethylsulfonyl)phenyl)ethyl)-4-((2S,4S)-2-((difluoromethoxy)methyl)-4-(4-(4-methyl-1H-pyrazol-1-yl)phenoxy)pyrrolidin-1-yl) benzamide], the IC50 stood at 10.2 nM.

As to `CCS(=O)(=O)c1ccc([C@H](CNC=O)NC(=O)c2ccc(N3C[C@@H](Oc4ccc(C(F)(F)F)cc4)C[C@H]3COC(F)F)cc2)cc1` [Example 148], the IC50 worked out at 15.2 nM.

For `CCS(=O)(=O)c1ccc([C@H](CC#N)NC(=O)c2ccc(N3C[C@@H](Oc4ccc(C(N)=O)cc4)C[C@H]3COC(F)F)cc2)cc1` [Example 25, 4-((2S,4S)-4-(4-carbamoylphenoxy)-2-((difluoromethoxy)methyl)pyrrolidin-1-yl)-N-((S)-2-cyano-1-(4-(ethylsulfonyl)phenyl)ethyl)benzamide], the IC50 was 66 nM.

For the compound `CCS(=O)(=O)c1ccc([C@H](CC#N)NC(=O)c2cnc(N3CC(Oc4ccc(C(F)(F)F)cc4)C[C@H]3COC(F)F)c(F)c2)cc1` (stereo in doubt) [Example 50, N-((S)-2-cyano-1-(4-(ethylsulfonyl)phenyl)ethyl)-6-((2S,4S)-2-((difluoromethoxy)methyl)-4-(4-(trifluoromethyl)phenoxy)pyrrolidin-1-yl)-5-fluoronicotinamide], the IC50 amounted to 16 nM.

As to `CCS(=O)(=O)c1ccc([C@H](CC#N)NC(=O)c2ccc(N3C[C@@H](Oc4ccc5c(c4)OC(F)(F)O5)C[C@H]3COC(F)F)cc2)cc1` [Example 78, N—((S)-2-cyano-1-(4-(ethylsulfonyl)phenyl)ethyl)-4-((2S,4S)-4-((2,2-difluorobenzo[d][1,3]dioxol-5-yl)oxy)-2-((difluoromethoxy)methyl)pyrrolidin-1-yl)-benzamide], the IC50 is 12 nM.

For the compound `CCS(=O)(=O)c1ccc([C@H](COC(N)=O)NC(=O)c2ccc(N3C[C@@H](Oc4ccc(Cl)cn4)C[C@H]3COC(F)F)nc2)cc1` [Example 183, (R)-2-(6-((2S,4S)-4-((5-chloropyridin-2-yl)oxy)-2-((difluoromethoxy)methyl)pyrrolidin-1-yl)nicotinamido)-2-(4-(ethylsulfonyl)phenyl)ethyl carbamate], the IC50 was 10 nM.

Turning to `CCS(=O)(=O)c1ccc([C@H](CC#N)NC(=O)c2ccc(N3C[C@H](c4ccc(C(F)(F)F)cc4)CC[C@H]3COC(F)F)cc2F)cc1` [Example 111-1, N—((S)-2-cyano-1-(4-(ethylsulfonyl)phenyl)ethyl)-4-((2S,5S)-2-((difluoromethoxy)methyl)-5-(4-(trifluoromethyl)phenyl)piperidin-1-yl)-2-fluorobenzamide], the IC50 is 16 nM.

For `NC(=O)OCC(C(=O)Nc1ccc(C(O)(C(F)(F)F)C(F)(F)F)cc1)c1ccc(S(=O)(=O)CC2CC2)cc1` (stereo not shown) [Example 182, 2-(4-((cyclopropylmethyl)sulfonyl)phenyl)-3-((4-(1,1,1,3,3,3-hexafluoro hydroxypropan-2-yl)phenyl)amino)-3-oxopropyl carbamate], the IC50 worked out at 55.8 nM.

On to `CCS(=O)(=O)c1ccc([C@H](CC#N)NC(=O)c2ccc(N3C[C@@H](Oc4ccc(C)nc4)C[C@H]3COC(F)F)cc2)cc1` [Example 15, N-((S)-2-cyano-1-(4-(ethylsulfonyl)phenyl)ethyl)-4-((2S,4S)-2-((difluoromethoxy)methyl)-4-((6-methylpyridin-3-yl)oxy)pyrrolidin-1-yl)benzamide], for which the IC50 worked out at 78.7 nM.

As for `CCS(=O)(=O)c1ccc([C@H](CC#N)NC(=O)c2ccc(N3C[C@@H](Oc4ccc(OC(F)(F)F)cn4)C[C@H]3COC(F)F)nc2)cc1` [Example 18], the IC50 came out at 25.9 nM.

On to `CCS(=O)(=O)c1ccc([C@H](CC(N)=O)NC(=O)c2ccc(N3C[C@@H](Oc4ccc(C(F)(F)F)cc4)C[C@H]3COC(F)F)cc2)cc1` [Example 98, N—((S)-3-amino-1-(4-(ethylsulfonyl)phenyl)-3-oxopropyl)-4-((2S,4S)-2-((difluoromethoxy)methyl)-4-(4-(trifluoromethyl)phenoxy)pyrrolidin-1-yl)benzamide], for which the IC50 was determined as 21 nM.

Consider `CCS(=O)(=O)c1ccc([C@H](CC#N)NC(=O)c2ccc(N3C[C@@H](OC4CCC(C(F)(F)F)CC4)C[C@H]3COC(F)F)cc2)cc1` (stereo partly drawn) [Example 89, N—((S)-2-cyano-1-(4-(ethylsulfonyl)phenyl)ethyl)-4-((2S)-2-((difluoromethoxy)methyl)-4-((4-(trifluoromethyl)cyclohexyl)oxy)pyrrolidin-1-yl)benzamide], for which the IC50 came out at 14 nM.

Consider `CCS(=O)(=O)c1ccc([C@H](CC(=O)OC)NC(=O)c2ccc(N3C[C@@H](Oc4ccc(C(F)(F)F)cc4)C[C@H]3COC(F)F)cc2)cc1` [Example 97, methyl (S)-3-(4-((2S,4S)-2-((difluoromethoxy)methyl)-4-(4-(trifluoromethyl)phenoxy)pyrrolidin-1-yl)benzoylamino)-3-(4-(ethylsulfonyl)phenyl)propionate], for which the IC50 amounted to 21 nM.

Take `CCS(=O)(=O)c1ccc([C@H](COC(N)=O)NC(=O)c2cnc(N3CCCC3c3cccc(F)c3)nc2)cc1` (stereo partly drawn) [Example 177, (2R)-2-(4-(Ethylsulfonyl)phenyl)-2-(2-(2-(3-fluorophenyl)pyrrolidin-1-yl)pyrimidine-5-carboxamido)ethyl carbamate]: the IC50 turned out to be 27.4 nM.

For the compound `CCS(=O)(=O)c1ccc([C@H](CC#N)NC(=O)c2ccc(N3C[C@@H](c4ccc(F)cc4)CC[C@H]3COC(F)F)cc2)cc1` [Example 114-2, N—((S)-2-cyano-1-(4-(ethylsulfonyl)phenyl)ethyl)-4-((2S,5R)-2-((difluoromethoxy)methyl)-5-(4-fluorophenyl)piperidin-1-yl)benzamide], the IC50 worked out at 23 nM.

Consider `CCS(=O)(=O)c1ccc([C@H](CC#N)NC(=O)c2ccc(N3C[C@H](O)C[C@H]3COC(F)F)cc2)cc1` [Example 131, N—((S)-2-cyano-1-(4-(ethylsulfonyl)phenyl)ethyl)-4-((2S,4R) ((difluoromethoxy)methyl)-4-hydroxypyrrolidin-1-yl)benzamide], for which the IC50 is 120 nM.

For `CCOC[C@H]1CC[C@@H](c2ccc(C(F)(F)F)cc2)CN1c1ccc(C(=O)N[C@H](CC#N)c2ccc(S(=O)(=O)CC)cc2)cc1` [Example 108-2, N—((R)-2-cyano-1-(4-(ethylsulfonyl)phenyl)ethyl)-4-((2R,5S)-2-(ethoxymethyl)-5-(4-(trifluoromethyl)phenyl)piperidin-1-yl)benzamide], the IC50 worked out at 24 nM.
